Laboratory results taken from ChEMBL document CHEMBL1671637, “Development, stability, and molecular mechanisms of macrolide resistance in Campylobacter jejuni” (2008).
≈ marks a conversion by molar mass, not a printed value. Calls of active or inactive are those of the source. The rule behind the calls is not given here.

Legend:
Campylobacter jejuni [1] = assay: Antimicrobial activity against Campylobacter jejuni DC2 infected in 15 days old chicken by agar dilution method; assay type: functional
Campylobacter jejuni [2] = assay: Antimicrobial activity against Campylobacter jejuni DC2 infected in chicken assessed as microbial shedding level after compound administration through feed for 20 days; assay type: functional, organism-based
Campylobacter jejuni [3] = assay: Antimicrobial activity against Campylobacter jejuni DC26 infected in chicken assessed as microbial shedding level after compound administration through feed for 20 days; assay type: functional, organism-based
Campylobacter jejuni [4] = assay: Antimicrobial activity against Campylobacter jejuni DC2 infected in 3 days old chicken by agar dilution method; assay type: functional
Campylobacter jejuni [5] = assay: Antimicrobial activity against Campylobacter jejuni DC6 infected in 3 days old chicken by agar dilution method; assay type: functional
Campylobacter jejuni [6] = assay: Antimicrobial activity against Campylobacter jejuni DC26 infected in 15 days old chicken food on medicated food by agar dilution method; assay type: functional
Campylobacter jejuni [7] = assay: Antimicrobial activity against Campylobacter jejuni DC2 infected in 15 days old chicken food on medicated food by agar dilution method; assay type: functional

MIC (Campylobacter jejuni [1]): 64 µg/mL (≈ 69.9 µM)
MIC (Campylobacter jejuni [4]): 64 µg/mL (≈ 69.9 µM)
MIC (Campylobacter jejuni [5]): > 512 µg/mL
MIC (Campylobacter jejuni [6]): 128 µg/mL (≈ 140 µM)
MIC (Campylobacter jejuni [7]): 64 µg/mL (≈ 69.9 µM)
Structure (SMILES): CC[C@H]1OC(=O)C[C@@H](O)[C@H](C)[C@@H](O[C@@H]2O[C@H](C)[C@@H](O[C@H]3C[C@@](C)(O)[C@@H](O)[C@H](C)O3)[C@H](N(C)C)[C@H]2O)[C@@H](CC=O)C[C@@H](C)C(=O)/C=C/C(C)=C/[C@@H]1CO[C@@H]1O[C@H](C)[C@@H](O)[C@@H](OC)[C@H]1OC [TYLOSIN]
Activity (Campylobacter jejuni [2]): inactive
Activity (Campylobacter jejuni [3]): inactive
